# Measured values: ChEMBL document CHEMBL1201862, “PubChem BioAssay data set” (2004)
#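 Following 48 hours of exposure in 96-well plates, responses at five concentrations were used to interpolate endpoints linearly. The concentration for 50% growth inhibition is given as GI50.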 Calls of active or inactive are those of the source. Rule as the data show it: active = GI50 up to about 1.1 µM and inactive = higher.
# Experiments:
# Experiment in all cases: growth of human tumour cells (NCI), 48 h
# 786-0 = tested on: 786-0
# A549 = tested on: A549
# CCRF-CEM = tested on: CCRF-CEM
# COLO 205 = tested on: COLO 205
# HCT-15 = tested on: HCT-15
# KM12 = tested on: KM12
# LOX IMVI = tested on: LOX IMVI
# MDA-MB-231 = tested on: MDA-MB-231
# NCI-H460 = tested on: NCI-H460
# NCI/ADR-RES = tested on: NCI/ADR-RES
# OVCAR-4 = tested on: OVCAR-4
# OVCAR-8 = tested on: OVCAR-8
# PC-3 = tested on: PC-3
# SK-MEL-28 = tested on: SK-MEL-28
# SR = tested on: SR
# OVCAR-5 = tested on: OVCAR-5
# RXF 393 = tested on: RXF 393
# SNB-75 = tested on: SNB-75
# EKVX = tested on: EKVX
# SF-295 = tested on: SF-295
Compound,GI50 (786-0),GI50 (A549),GI50 (CCRF-CEM),GI50 (COLO 205),GI50 (HCT-15) [µM],GI50 (KM12),GI50 (LOX IMVI),GI50 (MDA-MB-231),GI50 (NCI-H460),GI50 (NCI/ADR-RES),GI50 (OVCAR-4),GI50 (OVCAR-8),GI50 (PC-3),GI50 (SK-MEL-28),GI50 (SR),GI50 (OVCAR-5),GI50 (RXF 393),GI50 (SNB-75),GI50 (EKVX),GI50 (SF-295)
Cn1ccc(C(=O)NCCCCCNC(=O)c2ccn(C)c(=O)c2O)c(O)c1=O,> 100 µM (inactive),> 100 µM (inactive),> 100 µM (inactive),> 100 µM (inactive),> 100,> 100 µM (inactive),> 100 µM (inactive),> 100 µM (inactive),> 100 µM (inactive),> 100 µM (inactive),> 100 µM (inactive),> 100 µM (inactive),> 100 µM (inactive),> 100 µM (inactive),> 100 µM (inactive),,,,,
Nc1nc(Nc2ccc(Cl)cc2)sc1C(=O)c1cc2ccccc2oc1=O,19.5 µM (inactive),98.9 µM (inactive),7.38 µM (inactive),59.6 µM (inactive),34.5,35.2 µM (inactive),23.8 µM (inactive),37.8 µM (inactive),31 µM (inactive),38.5 µM (inactive),27.7 µM (inactive),,48.1 µM (inactive),46.5 µM (inactive),,> 100 µM (inactive),82.6 µM (inactive),7.55 µM (inactive),,
Cc1ccc(C)c2c1CC(Cc1ccccc1C(=O)O)C2=O (centres undefined),> 100 µM (inactive),> 100 µM (inactive),> 100 µM (inactive),> 100 µM (inactive),> 100,> 100 µM (inactive),> 100 µM (inactive),> 100 µM (inactive),> 100 µM (inactive),> 100 µM (inactive),> 100 µM (inactive),> 100 µM (inactive),> 100 µM (inactive),> 100 µM (inactive),,> 100 µM (inactive),83.2 µM (inactive),> 100 µM (inactive),> 100 µM (inactive),> 100 µM (inactive)
Nc1nc(Nc2cc(F)c(Cl)c(F)c2)cc(=O)[nH]1,76.4 µM (inactive),76.4 µM (inactive),66.8 µM (inactive),> 100 µM (inactive),> 100,27 µM (inactive),> 100 µM (inactive),68.2 µM (inactive),> 100 µM (inactive),> 100 µM (inactive),> 100 µM (inactive),> 100 µM (inactive),> 100 µM (inactive),> 100 µM (inactive),,> 100 µM (inactive),,30.7 µM (inactive),61.1 µM (inactive),44.9 µM (inactive)
CC1CNC(NS(=O)(=O)c2cc(C(=O)Nc3ccc(Cl)cc3)c(Cl)cc2S)=NN1 (centres undefined),42.1 µM (inactive),28.6 µM (inactive),34.9 µM (inactive),41.7 µM (inactive),20.8,28.1 µM (inactive),27.4 µM (inactive),37.8 µM (inactive),38.5 µM (inactive),36.6 µM (inactive),28.6 µM (inactive),25.4 µM (inactive),30 µM (inactive),22.3 µM (inactive),27.2 µM (inactive),38.5 µM (inactive),,,63 µM (inactive),35.8 µM (inactive)
COc1ccc(-c2nc3ncccn3c2-c2ccc(S(C)(=O)=O)cc2)cc1,> 100 µM (inactive),> 100 µM (inactive),> 100 µM (inactive),> 100 µM (inactive),> 100,> 100 µM (inactive),> 100 µM (inactive),> 100 µM (inactive),66.4 µM (inactive),> 100 µM (inactive),> 100 µM (inactive),> 100 µM (inactive),> 100 µM (inactive),> 100 µM (inactive),47.6 µM (inactive),> 100 µM (inactive),,> 100 µM (inactive),,> 100 µM (inactive)
